# Experimental data from US7476662B2, “Substituted tetracyclic imidazole derivatives, processes for their preparation, pharmaceutical compositions comprising them and their use as a medicine” (Janssen Pharmaceutica N.V., priority 2001, dated 2009).
# What was measured:
# non-traumatised rats = assay: ICP, MABP and CPP in anaesthetised non-traumatised rats; format: in vivo, rat; settings: i.v. 0.5 mg/kg/min during 10 minutes, followed by 0.1 mg/kg/min during 50 min
# Method: The effect of Compound 2, Compound 1 and Racemate (comp. 1 and comp. 2) on ICP, MABP and CPP was tested in anaesthetised non-traumatised rats. The compounds were administered i.v. and the same dose was given as in traumatized rats (0.5 mg/kg/min during 10 minutes, followed by 0.1 mg/kg/min during 50 min).
# rabbits = assay: Cold lesion-induced rise of ICP in rabbits; format: in vivo, rabbit; settings: rabbits one day after cryo-lesion
# Method: Cryo-lesions were induced in adult rabbits to obtain a pathological ICP that is caused by tissue oedema. A 8 mm stainless steel rod was placed at predetermined coordinates on the exposed skull of deeply anaesthetised rabbits and cooled for […] with liquid nitrogen. One day later the animals were re-anaesthetised and ICP and blood pressure continuously recorded as described for the rat. After a stabilisation period of 15 min, Compound 1 was infused for 10 min at a dose of 2 mg/kg/min. Solvent (preclinical formulation containing 10% HP-β-CD, pH 4) was given for 10 min at a rate of […].
# Sprague-Dawley rats [1] = assay: Changes in relevant physiological variables during treatment after severe CHI in rats; format: in vivo, rat; settings: median average change over entire treatment period, % change of initial value; 0.5 mg/kg/min 10 min then 0.1 mg/kg/min 50 min, started 20 min after severe CHI; n = 10
# Source text: A clinically relevant rat model for traumatic brain injury was used to test the compounds according to the invention. This model mimics several clinical features of traumatic brain injury, such as increased ICP, decreased cerebral perfusion pressure, morphologic alterations including diffuse axonal injury, neuronal necrosis and contusion, impairment of autoregulation of cerebral blood flow and reduction of brain oxygenation and was applied for screening drugs with ICP-lowering effects. Trauma was induced in intubated, isoflurane anesthetized (1.5% isoflurane in a mixture of 30% O2 and 70% N2O) Sprague-Dawley rats (380-400 g) stereotaxically positioned on a table mounted on 4 springs. A 400 g steel cylinder, protected with a 9 mm diameter silicon disc, was dropped on the unprotected skull from a height of either 70 cm or 50 cm (respectively ‘severe’ and ‘moderate’ head injury). The impact area was centered between bregma and lamda. ICP was recorded using a Codman microsensor probe inserted in the parietal cortex. In both severe and moderate head injuries the ICP increased immediately after trauma and remained elevated for several days. The severe head injury mode was used for the evaluation of pharmacological effects immediately after trauma (screening procedure). When survival and recovery from anesthesia was envisaged, the moderate head injury mode was applied. In pharmacological studies, animals with a pathological ICP between 12.5 and 35 mm Hg were included. The changes in ICP, mean arterial blood pressure (MABP) and cerebral perfusion pressure CPP (=[…]) were expressed as percentage of the initial value at onset of the treatment. Screening procedure: On a weekly base, 4 treated groups of 3 rats were compared with 3 saline treated animals. Since conventional statistical methods require a larger amount of animals, a sequential procedure was used. Sequential methods operate in different stages. At each stage, a group of animals was selected as homogeneous as possible. Animals were randomly allocated to either drugs or saline. The procedure allowed to make the decision of rejecting the drug, accepting the drug as active or to continue with a new group of animals in a next stage. Given the biological relevant level of activity that must be detected, the expected fraction of false positive and negative results was known and fixed. A sequential two-sample grouped rank test was used. […] Despite the variability in the individual data, the procedure consistently accepted reference treatments such as mannitol as active, while controls were rejected.
# Treatment was started at 20 min after severe head injury and involved administering a dose of 0.5 mg/kg/min during 10 minutes, followed by 0.1 mg/kg/min during 50 min.
# rat brain = assay: Near-infrared spectroscopy (NIRS) of the rat brain: brain hemoglobin concentration and oxygenation after moderate head injury; format: in vivo; settings: 24 h after moderate head injury; i.v. 0.5 mg/kg.min 10 min then 0.1 mg/kg.min 45 min
# Source text: Near-infrared spectroscopy (NIRS) of the rat brain ‘in vivo’ allows to quantify non-invasively saturation of brain haemoglobin with oxygen (HbSat) and total brain haemoglobin concentration ([HbTot]). The latter is a measure for cerebral blood volume (CBV). Changes in the redox state of the mitochondrial enzyme cytochrome oxidase (CytOx), an indicator for tissue oxygenation, can also be monitored.
# HbSat is not affected by compound 1 and the racemate (Comp. 1 and Comp. 2).
# Rhesus monkeys = assay: ICP in anaesthetised non-traumatised Rhesus monkeys; format: in vivo, Rhesus monkey; settings: i.v. infusion 2.5 and 5 mg/kg over 2.5 and 5 min (n=2/condition)
# Method: The effect of Compound 1 on ICP was tested in a limited number of anaesthetised non-traumatised Rhesus monkeys with a i.v. infusion of a dose of 2.5 and 5 mg/kg over 2.5 and 5 min respectively (n=2/condition).
# traumatized rats = assay: Repeated application on elevated ICP in traumatized rats; format: in vivo, rat; settings: i.v. 1 mg/kg/min during 10 min, repeated, FIG. 3
# Method: Compound 1 was given 2 times with intermittent periods of 20 min at a i.v. dose of 1 mg/kg/min during 10 min, starting a first time 20 min after induction of severe head injury.
# Mannitol was given i.v. in the same time windows as Compound 1 at a dose of 0.125 g/kg/min. The control animals received the solvent (containing 10% HP-β-CD, pH 4) only.
# This effect is amplified after termination of each, infusion period.
# Sprague-Dawley rats [2] = assay: Dose response of a 10 min infusion in the rat CHI model; format: in vivo
# Source text: A clinically relevant rat model for traumatic brain injury was used to test the compounds according to the invention. This model mimics several clinical features of traumatic brain injury, such as increased ICP, decreased cerebral perfusion pressure, morphologic alterations including diffuse axonal injury, neuronal necrosis and contusion, impairment of autoregulation of cerebral blood flow and reduction of brain oxygenation and was applied for screening drugs with ICP-lowering effects. Trauma was induced in intubated, isoflurane anesthetized (1.5% isoflurane in a mixture of 30% O2 and 70% N2O) Sprague-Dawley rats (380-400 g) stereotaxically positioned on a table mounted on 4 springs. A 400 g steel cylinder, protected with a 9 mm diameter silicon disc, was dropped on the unprotected skull from a height of either 70 cm or 50 cm (respectively ‘severe’ and ‘moderate’ head injury). The impact area was centered between bregma and lamda. ICP was recorded using a Codman microsensor probe inserted in the parietal cortex. In both severe and moderate head injuries the ICP increased immediately after trauma and remained elevated for several days. The severe head injury mode was used for the evaluation of pharmacological effects immediately after trauma (screening procedure). When survival and recovery from anesthesia was envisaged, the moderate head injury mode was applied. In pharmacological studies, animals with a pathological ICP between 12.5 and 35 mm Hg were included. The changes in ICP, mean arterial blood pressure (MABP) and cerebral perfusion pressure CPP (=[…]) were expressed as percentage of the initial value at onset of the treatment. Screening procedure: On a weekly base, 4 treated groups of 3 rats were compared with 3 saline treated animals. Since conventional statistical methods require a larger amount of animals, a sequential procedure was used. Sequential methods operate in different stages. […] Given the biological relevant level of activity that must be detected, the expected fraction of false positive and negative results was known and fixed. […]
structure (smiles),measurement,setting,value
"Cc1nc2n(C)c3ccccc3n2c(=O)c1CCN1CCC(C2c3ccccc3CCn3c2nc2ccccc23)CC1Cc1ccccc1 (single isomer, unassigned) [Compound 1, (B)[(2α,4β)(A)]3-[2-(4-(11,12-dihydro-6H-benzimidazo [2,1-b][3]benzazepin-6-yl)-2-(phenylmethyl)-1-piperidinyl]ethyl]-2,10-dimethyl-pyrimido[1,2-a]benzimidazol-4(10H)-one (E)-2-butenedioate (2:3) hydrate (1:1)]","effect on ICP, MABP and CPP",non-traumatised rats,comparable with those obtained in the traumatized animals
same,blood pressure during infusion,rabbits; 2 mg/kg/min for 10 min,drops
same,effect on ICP during infusion,"rabbits; 2 mg/kg/min for 10 min, FIG. 4",no immediate decrease in ICP
same,blood pressure when drug infusion is terminated,rabbits; after 2 mg/kg/min for 10 min,comes back to the initial value
same,effect on ICP when drug infusion is terminated,"rabbits; after 2 mg/kg/min for 10 min, persists during entire recording period",significant ICP reduction
same,CPP (%),Sprague-Dawley rats [1],−1.9%
same,ETCO2 (%),Sprague-Dawley rats [1],2.2%
same,Heart rate(%),Sprague-Dawley rats [1],−4.1%
same,ICP (%),Sprague-Dawley rats [1],−15.4%
same,MABP (%),Sprague-Dawley rats [1],−3.6%
same,Resp. rate(%),Sprague-Dawley rats [1],5.3%
same,effect on saturation of brain haemoglobin with oxygen (HbSat),rat brain,not affected
same,effect on total brain haemoglobin concentration [HbTot],rat brain,do not have a significant effect
same,pattern of ICP and blood pressure changes during and after infusion,Rhesus monkeys,resembles the pattern of changes observed in cryo-lesioned rabbits
same,effect on ICP during infusion,traumatized rats; first 20 min after severe head injury,rapid reduction of ICP
same,effect on ICP after termination of each infusion period,traumatized rats,amplified
same,effect on blood pressure,traumatized rats,drops during Compound 1 treatment but is restored again after this episode
same,dose starting at which reduction in ICP is statistically significantly larger than in the solvent-treated group,Sprague-Dawley rats [2]; 10 min infusion,≥ 1 mg/kg/min
same,effect on ICP during treatment,"Sprague-Dawley rats [2]; 10 min infusion at 0.125, 0.25, 0.5, 1 and 2 mg/kg/min, FIG. 1",sustained dose-dependent decrease of ICP
same,effect on ICP in the 10 min period following the infusion,"Sprague-Dawley rats [2]; after 10 min infusion at 0.125-2 mg/kg/min, FIG. 2",highly significant dose-dependent effect on ICP remains present
